The text below walks through data of US7432283B2, “Heterocyclic GABAA subtype selective receptor modulators” (Roche Palo Alto LLC, priority 2004, dated 2008).

`Cc1cc(C)c(N2CCCc3c2nn(C)c3N)c(Cl)c1` [Compound 5-45, 7-(2-Chloro-4,6-dimethyl-phenyl)-2-methyl-4,5,6,7-tetrahydro-2H-pyrazolo[3,4-b]pyridin-3-ylamine] showed a melting point of 234 to 236 °C.

`Cc1cc(C)c(N2CCCc3c2nn(C)c3Cl)c(C)c1` [Compound 1-11, 3-chloro-7-(2,4,6-trimethyl-phenyl)-2-methyl-4,5,6,7-tetrahydro-2H-pyrazolo[3,4-b]pyridine] showed a melting point of 83 to 86 °C.

With `CCCC(O)(CCC)c1c2c(nn1C)N(c1c(C)cc(C)cc1Cl)CCC2` [Compound 2-1, 4-[7-(2-Chloro-4,6-dimethylphenyl)-2-methyl-4,5,6,7-tetrahydro-2H-pyrazolo[3,4-b]pyridin-3-yl]heptan-4-ol], the melting point lay in the range of 129 to 130 °C.

Consider `Cc1cc(C)c(N2CCCc3c2nn(C)c3C(=O)N2CCc3ccccc3C2)c(C)c1` [Compound 7-2, (3,4-Dihydro-1H-isoquinolin-2-yl)-[2-methyl-7-(2,4,6-trimethyl-phenyl)-4,5,6,7-tetrahydro-2H-pyrazolo[3,4-b]pyridin-3-yl]-methanone], for which the melting point is 80.3 to 87.7 °C.

Regarding `CC/C=C(\CCC)c1c2c(nn1C)N(c1c(C)cc(C)cc1C)CCC2` [Compound 3-2, 2-Methyl-3-(1-propylbut-1-enyl)-7-(2,4,6-trimethylphenyl)-4,5,6,7-tetrahydro-2H-pyrazolo[3,4-b]pyridine], the melting point was 101.6 to 102.6 °C.

In turn, `CCCC(CCC)c1c2c(nn1C)N(c1c(C)cc(C)cc1C)CCC2` [Compound 4-2, 2-Methyl-3-(1-propylbutyl)-7-(2,4,6-trimethylphenyl)-4,5,6,7-tetrahydro-2H-pyrazolo[3,4-b]pyridine] returned a melting point of 91.5 to 92 °C.

`Cc1cc(C)c(N2CCCc3c2[nH]n(C)c3=O)c(Cl)c1` [Compound 1-15, 7-(2-Chloro-4,6-dimethyl-phenyl)-2-methyl-1,2,4,5,6,7-hexahydro-pyrazolo[3,4-b]pyridin-3-one] registered a melting point of 103 to 109 °C.

In turn, `CCCC(COC)Nc1c2c(nn1C)N(c1c(C)cc(C)cc1C)CCC2` (centres unmarked) [Compound 5-41, (1-Methoxymethylbutyl)-[2-methyl-7-(2,4,6-trimethylphenyl)-4,5,6,7-tetrahydro-2H-pyrazolo[3,4-b]pyridin-3-yl]-amine] returned a melting point of 100.1 to 104.4 °C.

On to `Cc1cc(C)c(N2CCCc3c2nn(C)c3C(C)C)c(C)c1` [Compound 4-7, 3-Isopropyl-2-methyl-7-(2,4,6-trimethyl-phenyl)-4,5,6,7-tetrahydro-2H-pyrazolo[3,4-b]pyridine], for which the melting point was in the range of 105.9 to 108.9 °C.

In the case of `CCCC(CCC)c1c2c(nn1C)N(c1c(C)cc(C)cc1C)CCCC2` [Compound 4-4, 2-Methyl-3-(1-propylbutyl)-8-(2,4,6-trimethylphenyl)-2,4,5,6,7,8-hexahydro-1,2,8-triazaazulene], the melting point was 96 to 98.1 °C.

On to `Cc1cc(C)c(N2CCCc3c2nn(C)c3Br)c(Cl)c1` [Compound 1-1, 3-Bromo-7-(2-chloro-4,6-dimethylphenyl)-2-methyl-4,5,6,7-tetrahydro-2H-pyrazolo[3,4-b]pyridine], for which the melting point was 106 to 107 °C.

Compound `Cc1cc(C)c(N2CCCc3c2nn(C)c3C=O)c(C)c1` [Compound 2-24, 2-Methyl-7-(2,4,6-trimethyl-phenyl)-4,5,6,7-tetrahydro-2H-pyrazolo[3,4-b] pyridine-3-carbaldehyde] came in with a melting point of 120.5 to 123.5 °C.

Take `C=Cc1c2c(nn1C)N(c1c(C)cc(C)cc1C)CCC2` [Compound 3-8, 2-methyl-7-(2,4,6-trimethyl-phenyl)-3-vinyl-4,5,6,7-tetrahydro-2H-pyrazolo[3,4-b]pyridine]: the melting point was in the range of 64.4 to 67.6 °C.

Compound `Cc1cc(C)c(N2CCOc3cn(C)nc32)c(C)c1` [Compound 9-5, 2-Methyl-7-(2,4,6-trimethyl-phenyl)-2,5,6,7-tetrahydro-pyrazolo[4,3-b][1,4]oxazine] returned a melting point of 103.6 to 104.8 °C.
